Measured values from PMC9269301, “Phytochemical Analysis, Antioxidant, Antimicrobial, and Cytotoxic Activity of Different Extracts of Xanthoparmelia stenophylla Lichen from Stara Planina, Serbia” (Plants, 2022).
Values after ≈ are worked out from the molar mass of the structure shown. Read-outs that look alike come from different tables or passages of the source.

Experiments:
A. niger ATCC 16888 = assay: Microdilution with resazurin, antifungal; format: cell-based, Aspergillus niger; conditions: Aspergillus niger, ATCC16888, antimycotics
Method: (§1) The tested methanol, acetone, and n-hexane extracts, as well as the component (usnic acid) of X. stenophylla, were dissolved in 10% dimethyl sulfoxide (DMSO) and then diluted into the nutrient liquid medium. DMSO was obtained from Acros Organics (Fair Lawn, NJ, USA). Resazurin was obtained from Alfa Aesar GmbH & Co. (KG, Karlsruhe, Germany).
(§2) The antimicrobial activity of the extracts and components was tested against 19 microorganisms. The experiment involved 15 strains of bacteria (i.e., 6 standard strains: Staphylococcus aureus ATCC 6538, Bacillus subtilis ATCC 6633, Proteus mirabilis ATCC 12453, Pseudomonas aeruginosa ATCC 27853, Klebsiella pneumoniae ATCC 70063, and Escherichia coli ATCC 25922; 9 isolates: Staphylococcus aureus, Escherichia coli, Salmonella enterica, Salmonella Typhimurium, Proteus mirabilis, Klebsiella pneumoniae, Pseudomonas aeruginosa, Bacillus subtilis, and Bacillus cereus). In addition, four fungal strains (i.e., two standard strains: Candida albicans ATCC 10231 and Aspergillus niger ATCC 16888; two isolates: Saccharomyces cerevisiae and Candida albicans) were tested. All isolates were a generous gift from the Institute of Public Health, Kragujevac. The other microorganisms were provided from the collection held by the Microbiology Laboratory Faculty of Science, University of Kragujevac.
(§3) The bacterial suspensions were prepared by the direct colony method. The turbidity of the initial suspension was adjusted using a densitometer (DEN-1, BioSan, Riga, Latvia). When adjusted to the turbidity of the 0.5 McFarland’s standard (Andrews, 2005) the bacteria suspension contained approximately 10^8 colony-forming units (CFU)/mL, and the suspension of yeast contained 10^6 CFU/mL; 1:100 dilutions of the initial suspension were additionally prepared in sterile 0.85% saline. The suspensions of fungal spores were prepared by gentle stripping of spores from slopes with growing mycelia. The resulting suspensions were 1:1000 diluted in sterile 0.85% saline.
(§4) Antimicrobial activity was tested by determining the minimum inhibitory concentrations (MICs) and minimum microbicidal concentrations (MBCs) using the microdilution plate method with resazurin [56]. The 96-well plates were prepared by dispensing 100 μL of Mueller–Hinton broth for bacteria and Sabouard broth for fungi into each well. A 10 μL aliquot from the stock solution of the tested extract or component was added to the first row of the plate. Then, two-fold serial dilutions were performed using a multichannel pipette. The obtained concentration range was from 10 to 0.08 mg/mL. The method is described in detail in [76].
(§5) Each test included growth control and sterility control.
(§6) Minimum microbicidal concentrations were determined by plating 10 μL of samples from wells where no indicator color change or no mycelia growth was recorded on a nutrient agar medium. At the end of the incubation period, the lowest concentration with no growth (no colony) was defined as the minimum microbicidal concentration.

C. albicans (isolate) = assay: Microdilution with resazurin, antifungal; format: cell-based, Candida albicans; conditions: Candida albicans, antimycotics
Method: as §1, §2, §3, §4, §5, §6

C. albicans ATCC 10231 = assay: Microdilution with resazurin, antifungal; format: cell-based, Candida albicans; conditions: Candida albicans, ATCC10231, antimycotics
Method: as §1, §2, §3, §4, §5, §6

[1] = tested on: S. aureus ATCC 6538 biofilm; assay: Antibiofilm activity (biofilm formation, crystal violet); format: cell-based, Staphylococcus aureus; conditions: for IC50: Staphylococcus aureus, read-out: BIC50 (biofilm inhibitory concentration, 50% reduction of biofilm coverage)
Method: (§7) The ability of S. aureus ATCC 6538 and P. aeruginosa to form biofilms was assayed as described by O’Toole et al. with some modifications. Briefly, the tissue culture of 96-well microtiter plates (Sarstedt, Germany) were prepared by dispensing 100 µL of nutrient broth (i.e., Mueller–Hinton broth) into each well. Ten microliters of spore suspension (10^8 colony-forming units (CFU)/mL) was added into each row. […] Biofilms formed by adherent cells in 96-well microtiter plates were stained with crystal violet (0.1% w/v; Fluka AG, Buchs, Switzerland) and incubated at room temperature for 20 min. Excess stain was rinsed off by thorough washing with deionized water and then with […] of 96% ethanol. Optical densities (ODs) of stained adherent bacteria were determined with an enzyme-linked immunosorbent assay (ELISA) plate reader (RT-2100C, Rayto, Shenzhen, China) at a 630 nm wavelength. Only broth served as a control to check sterility and nonspecific binding of media. To compensate for background absorbance, OD readings from sterile medium, fixative, and dye were averaged and subtracted from all test values. All tests were performed in duplicate. The tissue culture of 96-well microtiter plates (Sarstedt, Nümbrecht, Germany) were prepared by dispensing 100 µL of nutrient broth (i.e., Mueller–Hinton broth) into each well. From the stock solution of the tested extracts or components (concentration: 20 mg/mL), 100 µL was added to the first row of the microtiter plate. Two-fold serial dilutions were then made using a multichannel pipette, following which 10 µL of fresh bacterial suspension was added to each well. The inoculated microtiter plates were incubated at 37 °C for 48 h. After incubation, the content of each well was gently removed by tapping the microtiter plates. […] Biofilms formed by adherent cells in 96-well microtiter plates were stained with crystal violet (0.1% w/v; Fluka AG, Switzerland) and incubated at room temperature for 20 min. Excess stain was rinsed off by thorough washing with deionized water and then with […] densities (ODs) of stained adherent bacteria were determined with an enzyme-linked immunosorbent assay (ELISA) plate reader at a 630 nm wavelength. […] Only broth or broth with extracts served as a control to check the sterility and nonspecific binding of media. To compensate for background absorbance, OD readings from sterile medium, extracts, fixative, and dye were averaged and subtracted from all test values. All tests were performed in duplicate.

P. aeruginosa biofilm = assay: as above; format: cell-based, Pseudomonas aeruginosa; conditions: 48 h; for IC50: Pseudomonas aeruginosa, read-out: BIC50 (biofilm inhibitory concentration, 50% reduction of biofilm coverage)
Method: as §7

[2] = tested on: HeLa cells (cervical adenocarcinoma); assay: MTT assay; format: cell-based, human; conditions: for TGI (total growth inhibition) / GI50 / IC50: HeLa; for GI50 / IC50: Homo sapiens; for GI50: read-out: GI50 (50% growth inhibition); for IC50: read-out: IC50; for SI (selectivity index): IC50 MRC-5 / IC50 HeLa
[3] = tested on: MRC-5 cells (nontransformed human lung fibroblast); assay: MTT assay; format: cell-based; conditions: for GI50 / IC50: Homo sapiens; for GI50: MRC5, read-out: GI50 (50% growth inhibition); for IC50: MRC5, read-out: IC50
[4] = tested on: HCT 116 cells (colon cancer); assay: MTT assay; format: cell-based, human; conditions: for GI50 / IC50: Homo sapiens; for GI50: read-out: GI50 (50% growth inhibition); for IC50: read-out: IC50
[5] = S. aureus ATCC 6538, 37 °C, 48 h

C[C@@H]1[C@H](O)[C@@H](C)/C=C/C=C/C=C/C=C/C=C/C=C/C=C/[C@H](O[C@@H]2O[C@H](C)[C@@H](O)[C@H](N)[C@@H]2O)C[C@@H]2O[C@](O)(C[C@@H](O)C[C@@H](O)[C@H](O)CC[C@@H](O)C[C@@H](O)CC(=O)O[C@H]1C)C[C@H](O)[C@H]2C(=O)O [AB, amphotericin B]
MFC (A. niger ATCC 16888; read-out: MFC): 0.98 µg/mL (≈ 1.06 µM)
MIC (A. niger ATCC 16888; read-out: MIC): 0.98 µg/mL (≈ 1.06 µM)
MFC (C. albicans (isolate); read-out: MFC): 1.95 µg/mL (≈ 2.11 µM)
MIC (C. albicans (isolate); read-out: MIC): 0.98 µg/mL (≈ 1.06 µM)
MFC (C. albicans ATCC 10231; read-out: MFC): 1.95 µg/mL (≈ 2.11 µM)
MIC (C. albicans ATCC 10231; read-out: MIC): 0.49 µg/mL (≈ 0.53 µM)

CO/N=C(\C(=O)N[C@@H]1C(=O)N2C(C(=O)O)=C(CSc3nc(=O)c(=O)[nH]n3C)CS[C@H]12)c1csc(N)n1 [CT, ceftriaxone]
BIC90 (biofilm inhibitory concentration, 90% reduction of biofilm coverage) [1, 5]: >1000 µg/mL
IC50 ([1]; ATCC6538, S. aureus ATCC 6538, 37 °C, 48 h): 475 µg/mL (≈ 857 µM)
BIC90 (biofilm inhibitory concentration, 90% reduction of biofilm coverage) (P. aeruginosa biofilm; P. aeruginosa, 37 °C): >1000 µg/mL
IC50 (P. aeruginosa biofilm; P. aeruginosa, 37 °C): 116 µg/mL (≈ 210 µM)

COc1cccc2c1C(=O)c1c(O)c3c(c(O)c1C2=O)C[C@@](O)(C(=O)CO)C[C@@H]3O[C@H]1C[C@H](N)[C@H](O)[C@H](C)O1 [DOX, doxorubicin]
TGI (total growth inhibition) ([2]; 24 h): <0.1 µg/mL
TGI (total growth inhibition) ([2]; 48 h): <0.1 µg/mL
TGI (total growth inhibition) ([2]; 72 h): <0.1 µg/mL
GI50 ([2]; 24 h): < 0.1 µg/mL
IC50 ([2]; 24 h): 22.9 ± 3.05 µg/mL (≈ 42.2 µM)
GI50 ([2]; 48 h): < 0.1 µg/mL
IC50 ([2]; 48 h): 1.04 ± 0.06 µg/mL (≈ 1.91 µM)
GI50 ([2]; 72 h): < 0.1 µg/mL
IC50 ([2]; 72 h): 0.14 ± 0.01 µg/mL (≈ 0.258 µM)
SI (selectivity index) ([2]; 24 h): 3.8
SI (selectivity index) ([2]; 48 h): 0.92
SI (selectivity index) ([2]; 72 h): 0.71
GI50 ([3]; MRC-5, 24 h): < 0.1 µg/mL
GI50 ([3]; MRC-5, 48 h): < 0.1 µg/mL
GI50 ([3]; MRC-5, 72 h): < 0.1 µg/mL
IC50 ([3]; MRC-5, 24 h): 86.9 ± 17.2 µg/mL (≈ 160 µM)
IC50 ([3]; MRC-5, 48 h): 0.96 ± 0.1 µg/mL (≈ 1.77 µM)
IC50 ([3]; MRC-5, 72 h): 0.1 ± 0.05 µg/mL (≈ 0.184 µM)
TGI (total growth inhibition) ([3]; MRC-5, 24 h): 54.71 ± 4.65 µg/mL (≈ 101 µM)
TGI (total growth inhibition) ([3]; MRC-5, 48 h): 6.34 ± 2.90 µg/mL (≈ 11.7 µM)
TGI (total growth inhibition) ([3]; MRC-5, 72 h): 2.35 ± 0.35 µg/mL (≈ 4.32 µM)
TGI (total growth inhibition) ([4]; HCT 116, 24 h): <0.1 µg/mL
TGI (total growth inhibition) ([4]; HCT 116, 48 h): <0.1 µg/mL
TGI (total growth inhibition) ([4]; HCT 116, 72 h): <0.1 µg/mL
GI50 ([4]; HCT 116, 24 h): < 0.1 µg/mL
GI50 ([4]; HCT 116, 48 h): < 0.1 µg/mL
GI50 ([4]; HCT 116, 72 h): < 0.1 µg/mL
IC50 ([4]; HCT 116, 24 h): 153 ± 9.69 µg/mL (≈ 281 µM)
IC50 ([4]; HCT 116, 72 h): 0.41 ± 0.16 µg/mL (≈ 0.754 µM)
SI (selectivity index) ([4]; IC50 MRC-5 / IC50 HCT 116, 24 h): 0.57
SI (selectivity index) ([4]; IC50 MRC-5 / IC50 HCT 116, 72 h): 0.24

CN[C@H](CC(C)C)C(=O)N[C@H]1C(=O)N[C@@H](CC(N)=O)C(=O)N[C@H]2C(=O)N[C@H]3C(=O)N[C@H](C(=O)N[C@H](C(=O)O)c4cc(O)cc(O)c4-c4cc3ccc4O)[C@H](O)c3ccc(c(Cl)c3)Oc3cc2cc(c3O[C@@H]2O[C@H](CO)[C@@H](O)[C@H](O)[C@H]2O[C@H]2C[C@](C)(N)[C@H](O)[C@H](C)O2)Oc2ccc(cc2Cl)[C@H]1O [VM, vancomycin]
BIC90 (biofilm inhibitory concentration, 90% reduction of biofilm coverage) [1, 5]: >1000 µg/mL
IC50 ([1]; ATCC6538, 48 h): 62.6 µg/mL (≈ 43.2 µM)
BIC90 (biofilm inhibitory concentration, 90% reduction of biofilm coverage) (P. aeruginosa biofilm; P. aeruginosa, 37 °C): >1000 µg/mL
IC50 (P. aeruginosa biofilm): 734 µg/mL (≈ 506 µM)
